Data on 2 compounds can be found in paper PMC3413214, “Structural and biochemical characterization of a trapped coenzyme A adduct of Caenorhabditis elegans glucosamine-6-phosphate N-acetyltransferase 1” (Acta Crystallographica Section D: Biological Crystallography, 2012).

Test [1] addresses T1, CeGNA1 (Caenorhabditis elegans, UniProt Q17427).
T1 construct: gene gna-1; full-length, 165 residues; GST fusion from pGEX-6P-1 in E. coli BL21(DE3) pLysS, GST cut with PreScission protease; homodimer; 18 876 Da by MALDI
As to the kind of experiment: X-ray crystal structure, […] Å. The test is classed as binding. The conditions noted are these: ternary product complex with CoA; acceptor (GlcN-6P) subsite at dimer interface; crystals at pH 8.5.

The target of test [2] is T1, CeGNA1. The test can be described thus: X-ray crystal structure, […] Å; MALDI-TOF mass spectrometry. The test is classed as binding. The conditions noted are these: covalent; disulfide to Cys141, inactive enzyme, reversed by DTT; nonreducing crystallisation, pH 8.5.

T1 sequence (Q17427 whole entry, the tested form may be a part): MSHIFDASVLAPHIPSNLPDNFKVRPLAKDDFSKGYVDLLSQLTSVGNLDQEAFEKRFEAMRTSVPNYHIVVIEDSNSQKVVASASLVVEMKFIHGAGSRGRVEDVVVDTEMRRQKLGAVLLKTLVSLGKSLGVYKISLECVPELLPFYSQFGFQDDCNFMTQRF

With `CC(=O)N[C@H]1C(O)O[C@H](COP(=O)(O)O)[C@@H](O)[C@@H]1O` (some centres unmarked) [GlcNAc-6P], the “X-ray crystal structure, 1.75 Å” value on CeGNA1 [1] is “occupied by the products CoA and GlcNAc-6-phosphate, both with well defined electron density”.
For the compound `CC(C)(COP(=O)(O)OP(=O)(O)OC[C@H]1O[C@@H](n2cnc3c(N)ncnc32)[C@H](O)[C@@H]1OP(=O)(O)O)[C@@H](O)C(=O)NCCC(=O)NCCS` [CoA], the “X-ray crystal structure, 1.55 Å; MALDI-TOF mass spectrometry” value at CeGNA1 [2] was “the CoA thiol has formed a covalent complex with the enzyme through a disulfide”.
